Assay results: patent US20210238551A1, “Method for Generating Regulatory T Cells” (Osaka University, priority 2018, published 2021)

How the values were obtained:
mouse naïve T cells = test: Bisulfite sequencing of regulatory T cell-specific demethylation in regulatory T cells induced from mouse naïve T cells; type: cell-based; details: 10 μg/ml or 30 μg/ml ascorbic acid in basal medium, Example 1 culture system, FIG. 3
Experimental: (§1) Genomic DNA was obtained from induced cells, treated with MethylEasy Xceed Rapid DNA Bisulphite Modification Kit (Human Genetic Signatures), and then examined for demethylations in genes specific to regulatory T cells. The demethylations in each gene were analyzed by using known methods and primers (Floess et al. (2007) PloS Biology Volume 5, Issue 2, e38, and Ohkura et al. (2012) Immunity 37(5) 785-799).
(§2) For the analysis in mouse Foxp3 CNS2 region, 5′-[…]-3′ (SEQ ID NO: 1) was used as the primer on the forward side, and 5′-[…]-3′ (SEQ ID NO: 2) was used as the primer on the reverse side. For the analysis in human Foxp3 CNS2 region, 5′-[…]-3′ (SEQ ID NO: 3) was used as the primer on the forward side, and 5′-[…]-3′ (SEQ ID NO: 4) was used as the primer on the reverse side.
Mouse naïve T cells were obtained from lymph nodes of eFox reporter mice by FACS. […] We analyzed regulatory T cell-specific demethylation sites and commonly methylation sites in Foxp3, CTLA4, Eos, and Helios. […]

[1] = tested on: human CD4+ CD25- CD45RA+ T cells; test: Bisulfite sequencing of demethylation in Foxp3 CNS2 region in regulatory T cells induced from human T cells; type: cell-based; details: combined with ascorbic acid, FIG. 13
Experimental: as §1, §2
Human CD4^+ CD25^− CD45RA^+ T cells (human T cells) were stimulated in the basal medium comprising anti-CD3 antibody, anti-CD28 antibody, and IL-2 for 3 days. The cells were then cultured for pretreatment in the basal medium supplemented with only IL-2 for 4 days. […]

human T cells = details: existing methods, Non-patent literature 3; cited from earlier work

For `O=C1O[C@H]([C@@H](O)CO)C(O)=C1O` [ascorbic acid], the “degree of demethylations at regulatory T cell-specific sites on adding ascorbic acid” value (mouse naïve T cells) is listed as “degree of the demethylations was further increased”, the “demethylation effect in human T cell-derived regulatory T cells” value [1] is listed as “demethylation effect of ascorbic acid was also observed” and the “induction of regulatory T cell-specific demethylations in human T cells” value (human T cells) is listed as “cannot induce regulatory T cell-specific demethylations in human T cells”.
